# Reference: PMC11374673, “Discovery of isoquinoline sulfonamides as allosteric gyrase inhibitors with activity against fluoroquinolone-resistant bacteria” (Nature Chemistry, 2024)
# Values joined by “and” are separate entries in the source; they are usually repeats but may differ in a detail not shown here. Identical values can stand only once. Like-named read-outs stand apart in the source and are kept apart here.
# Assays:
# K. pneumoniae ATCC 29665 = experiment: MIC by broth microdilution; format: cell-based, Klebsiella pneumoniae; details: read-out: MIC K. pneumoniae ATCC 29665
# Description: (§1) MIC was determined by broth microdilution. Single-colony cultures were grown to exponential phase (OD600 of 0.5) aerobically at 37 °C. In case of strains from the Keio collection, 50 µg ml^−1 kanamycin was supplemented to the media to ascertain a homogeneous population. The bacterial suspensions were diluted 100-fold in CAMHB and 50 µl was added to a twofold serial dilution series of test compounds (50 µl per well) in polypropylene 96-well microtitre plates to reach a volume of 100 µl. The plates were sealed with breathable membranes and incubated overnight at 37 °C with constant shaking (600 r.p.m.).
# HepG2 = experiment: Cytotoxicity assay (MTT); format: cell-based, human
# Description: (§2) HepG2 (ATCC HB-8065) and HEK293T (ATCC CRL-3216) cell lines were cultured at 37 °C and 7% CO2 in Dulbecco’s modified Eagle medium (Sigma-Aldrich, D6546) with GlutaMax, penicillin (100 µg ml^−1), streptomycin (100 µg ml^−1) and 10% fetal calf serum. Cells were passaged twice a week by first detaching using 0.05% trypsin in phosphate-buffered saline (PBS) and then diluting to appropriate confluence. Compound cytotoxicity was evaluated using the standard (3-(4,5-dimethylthiazol-2-yl)-2,5-diphenyltetrazolium bromide (MTT) assay protocol (MTT assay protocol for cell viability and proliferation, Merck) with slight changes. HepG2 and HEK293T cells were seeded at a density of 1.5 × 10^4 cells per well in a clear 96-well tissue culture treated plate in a final volume of 100 µl in Dulbecco’s modified Eagle medium, supplemented with fetal bovine serum (1%), GlutaMax and penicillin/streptomycin. Cells were incubated for 24 h at 37 °C, 7% CO2 to allow cells to attach to the plates. […] Incubation was done for 24 h at 37 °C, 7% CO2. After the incubation, MTT was added to each well at a final concentration of 0.40 mg ml^−1. The plates were then incubated for 2 h at 37 °C, 7% CO2. Medium was carefully removed via suction, and purple formazan crystals were resuspended in 100 µl DMSO. Absorbance was read at 570 nm using a Clariostar plate reader with MARS (V4.20). The data were then analysed with GraphPad Prism software. IC50 values were calculated using non-linear fitted curve with variable slope settings, with values adjusted for background (plotted absorbance (ABS)sample = (ABSsample – ABSbackground) / (ABSvehicle – ABSbackground)). Technical triplicates for each condition were used, along with biological duplicates.
# HEK293T = experiment: Cytotoxicity assay (MTT); format: cell-based, human; details: for MTT data (raw readout): HEK293T; for IC50: 24 h, MTT
# Description: as §2
# E. coli W3110 = experiment: MIC by broth microdilution; format: cell-based, Escherichia coli; details: for MIC: broth microdilution, read-out: MIC E. coli W3110; for antimicrobial activity: relative to parent compound
# Description: as §1
# [1] = Klebsiella pneumoniae, ATCC29665, broth microdilution
smiles,measurement,setting,value
O=S(=O)(NCCNCc1ccc(-c2ccccc2)cc1)c1cccc2cnccc12 [Compound 56],MIC,K. pneumoniae ATCC 29665; [1],12.5 µM
same,MTT data (raw readout),"HepG2; HepG2, 0.023 uM, experiment n = 1, technical triplicates",0.559 and 0.503 and 0.453
same,MTT data (raw readout),"HepG2; HepG2, 0.023 uM, experiment n = 2, technical triplicates",0.586 and 0.547 and 0.578
same,MTT data (raw readout),"HepG2; HepG2, 0.068 uM, experiment n = 1, technical triplicates",0.490 and 0.488 and 0.494
same,MTT data (raw readout),"HepG2; HepG2, 0.068 uM, experiment n = 2, technical triplicates",0.579 and 0.616 and 0.615
same,MTT data (raw readout),"HepG2; HepG2, 0.21 uM, experiment n = 1, technical triplicates",0.573 and 0.504 and 0.507
same,MTT data (raw readout),"HepG2; HepG2, 0.21 uM, experiment n = 2, technical triplicates",0.577 and 0.574 and 0.618
same,MTT data (raw readout),"HepG2; HepG2, 0.62 uM, experiment n = 1, technical triplicates",0.495 and 0.510 and 0.493
same,MTT data (raw readout),"HepG2; HepG2, 0.62 uM, experiment n = 2, technical triplicates",0.602 and 0.579 and 0.597
same,MTT data (raw readout),"HepG2; HepG2, 1.85 uM, experiment n = 1, technical triplicates",0.533 and 0.518 and 0.529
same,MTT data (raw readout),"HepG2; HepG2, 1.85 uM, experiment n = 2, technical triplicates",0.634 and 0.597 and 0.638
same,MTT data (raw readout),"HepG2; HepG2, 5.6 uM, experiment n = 1, technical triplicates",0.550 and 0.534 and 0.503
same,MTT data (raw readout),"HepG2; HepG2, 5.6 uM, experiment n = 2, technical triplicates",0.619 and 0.618 and 0.638
same,MTT data (raw readout),"HepG2; HepG2, 16.7 uM, experiment n = 1, technical triplicates",0.186 and 0.116 and 0.134
same,MTT data (raw readout),"HepG2; HepG2, 50 uM, experiment n = 1, technical triplicates",0.0047 and 0.0027
same,IC50,"HepG2; Homo sapiens, HepG2, 24 h, MTT, 24 h",16.7 µM
same,MTT data (raw readout),"HEK293T; 0.023 uM, experiment n = 1, technical triplicates",0.760 and 0.712 and 0.710
same,MTT data (raw readout),"HEK293T; 0.023 uM, experiment n = 2, technical triplicates",0.814 and 0.790 and 0.847
same,MTT data (raw readout),"HEK293T; 0.068 uM, experiment n = 1, technical triplicates",0.777 and 0.824 and 0.787
same,MTT data (raw readout),"HEK293T; 0.068 uM, experiment n = 2, technical triplicates",0.796 and 0.816 and 0.794
same,MTT data (raw readout),"HEK293T; 0.21 uM, experiment n = 1, technical triplicates",0.818 and 0.751 and 0.739
same,MTT data (raw readout),"HEK293T; 0.21 uM, experiment n = 2, technical triplicates",0.813 and 0.836 and 0.832
same,MTT data (raw readout),"HEK293T; 0.62 uM, experiment n = 1, technical triplicates",0.783 and 0.761 and 0.744
same,MTT data (raw readout),"HEK293T; 0.62 uM, experiment n = 2, technical triplicates",0.785 and 0.778 and 0.750
same,MTT data (raw readout),"HEK293T; 1.85 uM, experiment n = 1, technical triplicates",0.680 and 0.683 and 0.658
same,MTT data (raw readout),"HEK293T; 1.85 uM, experiment n = 2, technical triplicates",0.720 and 0.749 and 0.788
same,MTT data (raw readout),"HEK293T; 5.6 uM, experiment n = 1, technical triplicates",0.523 and 0.537 and 0.570
same,MTT data (raw readout),"HEK293T; 5.6 uM, experiment n = 2, technical triplicates",0.582 and 0.590 and 0.593
same,MTT data (raw readout),"HEK293T; 16.7 uM, experiment n = 1, technical triplicates",0.243 and 0.263 and 0.287
same,MTT data (raw readout),"HEK293T; 16.7 uM, experiment n = 2, technical triplicates",0.271 and 0.304 and 0.282
same,MTT data (raw readout),"HEK293T; 50 uM, experiment n = 1, technical triplicates",0.032 and 0.041 and 0.051
same,MTT data (raw readout),"HEK293T; 50 uM, experiment n = 2, technical triplicates",0.036 and 0.023 and 0.035
same,IC50,"HEK293T; Homo sapiens, HEK-293T",10 µM
same,IC50,HEK293T,10.4 µM
same,MIC,"E. coli W3110; Escherichia coli, W3110, WT",6.25 µM
same,antimicrobial activity,E. coli W3110,equally potent
O=S(=O)(NCCNCc1ccc(-c2cccnc2)nc1)c1cccc2cnccc12 [Compound 79],MIC,K. pneumoniae ATCC 29665; [1],> 50 µM
same,MIC,K. pneumoniae ATCC 29665; broth microdilution,>50 µM
same,MIC,"E. coli W3110; Escherichia coli, W3110, WT",> 50 µM
same,MIC,E. coli W3110; WT,>50 µM
O=S(=O)(NCCNCc1ccc(-c2ccccc2)nc1)c1cccc2cnccc12 [Compound 80],MIC,K. pneumoniae ATCC 29665; [1],> 50 µM
same,MIC,K. pneumoniae ATCC 29665; broth microdilution,>50 µM
same,MIC,"E. coli W3110; Escherichia coli, W3110, WT",> 50 µM
same,MIC,E. coli W3110; WT,>50 µM
O=S(=O)(NCCNCc1ccc(-c2ccc(F)nc2)nc1)c1cccc2cnccc12 [Compound 81],MIC,K. pneumoniae ATCC 29665; [1],> 50 µM
same,MIC,K. pneumoniae ATCC 29665; broth microdilution,>50 µM
same,MIC,"E. coli W3110; Escherichia coli, W3110, WT",> 50 µM
same,MIC,E. coli W3110; WT,>50 µM
O=S(=O)(NCCNCc1ccc(-c2ccc(F)cc2)nc1)c1cccc2cnccc12 [Compound 82],MIC,K. pneumoniae ATCC 29665; [1],> 50 µM
same,MIC,K. pneumoniae ATCC 29665; broth microdilution,>50 µM
same,MIC,"E. coli W3110; Escherichia coli, W3110, WT",> 50 µM
same,MIC,E. coli W3110; WT,>50 µM
O=S(=O)(NCCNCc1ccc(-c2cccnc2)c(Cl)c1)c1cccc2cnccc12 [Compound 83],MIC,K. pneumoniae ATCC 29665; [1],> 50 µM
same,MIC,K. pneumoniae ATCC 29665; broth microdilution,>50 µM
same,MIC,"E. coli W3110; Escherichia coli, W3110, WT",> 50 µM
same,MIC,E. coli W3110; WT,>50 µM
O=S(=O)(NCCNCc1ccc(-c2ccccc2)c(Cl)c1)c1cccc2cnccc12 [Compound 84],MIC,K. pneumoniae ATCC 29665; [1],> 50 µM
same,MIC,K. pneumoniae ATCC 29665; broth microdilution,>50 µM
same,MIC,"E. coli W3110; Escherichia coli, W3110, WT",> 50 µM
same,MIC,E. coli W3110; WT,>50 µM
O=S(=O)(NCCNCc1ccc(-c2ccc(F)nc2)c(Cl)c1)c1cccc2cnccc12 [Compound 85],MIC,K. pneumoniae ATCC 29665; [1],> 50 µM
same,MIC,K. pneumoniae ATCC 29665; broth microdilution,>50 µM
same,MIC,"E. coli W3110; Escherichia coli, W3110, WT",> 50 µM
same,MIC,E. coli W3110; WT,>50 µM
O=S(=O)(NCCNCc1ccc(-c2ccc(F)cc2)c(Cl)c1)c1cccc2cnccc12 [Compound 86],MIC,K. pneumoniae ATCC 29665; [1],> 50 µM
same,MIC,K. pneumoniae ATCC 29665; broth microdilution,>50 µM
same,MIC,"E. coli W3110; Escherichia coli, W3110, WT",50 µM
O=S(=O)(NCCNCc1ccc(-c2cccnc2)c(F)c1)c1cccc2cnccc12 [Compound 87],MIC,K. pneumoniae ATCC 29665; [1],50 µM
same,MIC,"E. coli W3110; Escherichia coli, W3110, WT",25 µM
O=S(=O)(NCCNCc1ccc(-c2ccccc2)c(F)c1)c1cccc2cnccc12 [Compound 88],MIC,K. pneumoniae ATCC 29665; [1],25 µM
same,MIC,"E. coli W3110; Escherichia coli, W3110, WT",12.5 µM
O=S(=O)(NCCNCc1ccc(-c2ccc(F)cc2)c(F)c1)c1cccc2cnccc12 [Compound 90],MIC,K. pneumoniae ATCC 29665; [1],12.5 µM
same,MIC,"E. coli W3110; Escherichia coli, W3110, WT",12.5 µM
O=C(NCCNCc1ccc(-c2cccnc2)cc1)c1cccc2cnccc12 [Compound 91],MIC,K. pneumoniae ATCC 29665; [1],> 50 µM
same,MIC,K. pneumoniae ATCC 29665; broth microdilution,>50 µM
same,MIC,"E. coli W3110; Escherichia coli, W3110, WT",> 50 µM
same,MIC,E. coli W3110; WT,>50 µM
same,antimicrobial activity,E. coli W3110,loss of activity
O=C(NCCNS(=O)(=O)c1cccc2cnccc12)c1ccc(-c2cccnc2)cc1 [Compound 93],MIC,K. pneumoniae ATCC 29665; [1],> 50 µM
same,MIC,K. pneumoniae ATCC 29665; broth microdilution,>50 µM
same,MIC,"E. coli W3110; Escherichia coli, W3110, WT",> 50 µM
same,MIC,E. coli W3110; WT,>50 µM
same,antimicrobial activity,E. coli W3110,abolished all activity
O=S(=O)(NCCOCc1ccc(-c2cccnc2)cc1)c1cccc2cnccc12 [Compound 94],MIC,K. pneumoniae ATCC 29665; [1],> 50 µM
same,MIC,K. pneumoniae ATCC 29665; broth microdilution,>50 µM
same,MIC,"E. coli W3110; Escherichia coli, W3110, WT",> 50 µM
same,MIC,E. coli W3110; WT,>50 µM
same,antimicrobial activity,E. coli W3110,abolished all activity
CN(CCNS(=O)(=O)c1cccc2cnccc12)Cc1ccc(-c2cccnc2)cc1 [Compound 95],MIC,K. pneumoniae ATCC 29665; [1],50 µM
same,MIC,"E. coli W3110; Escherichia coli, W3110, WT",> 50 µM
same,MIC,E. coli W3110; WT,>50 µM
same,antimicrobial activity,E. coli W3110,abolished all activity
